# Results: US20250221996A1, “HETEROCYCLIC COMPOUNDS, COMPOSITIONS THEREOF, AND METHODS OF TREATMENT THEREWITH” (BeiGene, Ltd., priority 2022, published 2025)
# Tested on: pERK1/2(THR202/TYR204) level in AsPC-1 cells
# Assay: pERK assay (HTRF) in AsPC-1 cell line
# Assay type: cell-based
# Conditions: 2 h compound treatment
# Method: AsPC-1 cell line was used in this study. Cells were maintained in RPMI-1640 supplemented with 10% fetal bovine serum (Thermo Fisher), 50 units/mL penicillin and streptomycin (Thermo Fisher) and kept at 37° C. in a humidified atmosphere of 5% CO2 in air. Cells were reinstated from frozen stocks that were laid down within 30 passages from the original cells purchased. 30000 cells per well were seeded into a 96-well plate and incubated overnight. Cells were treated with a 10-point dilution series. The final compound concentration is from 0 to 10 μM. After 2 h compound treatment, cells were lysed, and the pERK1/2(THR202/TYR204) level in the cell lysates was detected by HTRF kit (Cisbio). In brief, a total of 16 μL of cell lysate from each well of a 96-well plate was transferred to a 384-well white assay plate. Lysate from each well was incubated with 2 μL of Eu3+-cryptate (donor) labeled anti-phospho-ERK1/2 and 2 μL of D2 (acceptor) labeled anti-phospho-ERK1/2 antibodies (Cisbio) overnight in dark at room temperature. When donor and acceptor are in close proximity, excitation of the donor with laser triggers a Fluorescence Resonance Energy Transfer (FRET) towards the acceptor, which in turn fluoresces at 655 nm wavelength. FRET signals were measured using a PHERAstar FSX reader (BMG Labtech). IC50 determination was performed by fitting the curve of percent inhibition versus the log of the inhibitor concentration using Dotmatics.
structure (smiles),measurement,setting,value
"CC12CC(COc3nc(N4CC5CCC(C4)N5)c4ccc(-c5cc(O)cc6ccccc56)c(F)c4n3)(CO1)C2 [Example 42, 4-(4-(3,8-diazabicyclo[3.2.1]octan-3-yl)-8-fluoro-2-((1-methyl-2-oxabicyclo[2.1.1]hexan-4-yl)methoxy)quinazolin-7-yl)naphthalen-2-ol]",IC50,"Homo sapiens, ASPC1, 2 h",4340 nM
"N#Cc1c(N)sc2c(F)ccc(-c3c(C(F)(F)F)cc4c(N5CC6CCC(C5)N6)nc(OCC56COC(C(F)F)(C5)C6)nc4c3F)c12 (single isomer, unassigned) [Example 1-Isomer 2, 4-(4-(3,8-diazabicyclo[3.2.1]octan-3-yl)-2-((1-(difluoromethyl)-2-oxabicyclo[2.1.1]hexan-4-yl)methoxy)-8-fluoro-6-(trifluoromethyl)quinazolin-7-yl)-2-amino-7-fluorobenzo[b]thiophene-3-carbonitrile]",IC50,,84 nM
"N#Cc1c(N)sc2c(F)ccc(-c3c(C(F)(F)F)cc4c(N5CC6CCC(C5)N6)nc(OCC5CCOCC5)nc4c3F)c12 [Example 23, 4-(4-(3,8-diazabicyclo[3.2.1]octan-3-yl)-8-fluoro-2-((tetrahydro-2H-pyran-4-yl)methoxy)-6-(trifluoromethyl)quinazolin-7-yl)-2-amino-7-fluorobenzo[b]thiophene-3-carbonitrile]",IC50,"Homo sapiens, ASPC1, 2 h",334 nM
"N#Cc1c(N)sc2c(F)ccc(-c3c(C(F)(F)F)cc4c(N5CC6CCC(C5)N6)nc(OCC5(CO)COC5)nc4c3F)c12 [Example 57, 4-(4-(3,8-diazabicyclo[3.2.1]octan-3-yl)-8-fluoro-2-((3-(hydroxymethyl)oxetan-3-yl)methoxy)-6-(trifluoromethyl)quinazolin-7-yl)-2-amino-7-fluorobenzo[b]thiophene-3-carbonitrile]",IC50,"Homo sapiens, ASPC1, 2 h",294 nM
"N#CCC1(COc2nc(N3CC4CCC(C3)N4)c3cc(C(F)(F)F)c(-c4ccc(F)c5sc(N)c(C#N)c45)c(F)c3n2)COC1 [Example 51, 4-(4-(3,8-diazabicyclo[3.2.1]octan-3-yl)-2-((3-(cyanomethyl)oxetan-3-yl)methoxy)-8-fluoro-6-(trifluoromethyl)quinazolin-7-yl)-2-amino-7-fluoro benzo[b]thiophene-3-carbonitrile]",IC50,"Homo sapiens, ASPC1, 2 h",142 nM
"COC1(COc2nc(N3CC4CCC(C3)N4)c3cc(C(F)(F)F)c(-c4ccc(F)c5sc(N)c(C#N)c45)c(F)c3n2)CCOC1 (stereo not drawn) [Example 3-Mixture 1, 4-(4-(3,8-diazabicyclo[3.2.1]octan-3-yl)-8-fluoro-2-((3-methoxytetra hydrofuran-3-yl)methoxy)-6-(trifluoromethyl)quinazolin-7-yl)-2-amino-7-fluoro benzo[b]thiophene-3-carbonitrile]",IC50,"Homo sapiens, ASPC1, 2 h",1730 nM
"N#Cc1c(N)sc2c(F)ccc(-c3c(C(F)(F)F)cc4c(N5CC6CCC(C5)N6)nc(OCC5(C(F)F)CCOC5)nc4c3F)c12 (single isomer, unassigned) [Example 14-Isomer 4, 4-(4-(3,8-diazabicyclo[3.2.1]octan-3-yl)-2-((3-(difluoromethyl)tetrahydrofuran-3-yl)methoxy)-8-fluoro-6-(trifluoromethyl)quinazolin-7-yl)-2-amino-7-fluorobenzo[b]thiophene-3-carbonitrile]",IC50,,138 nM
"CC12CC(COc3nc(N4CC5CCC(C4)N5)c4ccc(-c5ccc(F)c6sc(N)c(C#N)c56)c(F)c4n3)(CO1)C2 [Example 15, 4-(4-(3,8-diazabicyclo[3.2.1]octan-3-yl)-8-fluoro-2-((1-methyl-2-oxabicyclo[2.1.1]hexan-4-yl)methoxy)quinazolin-7-yl)-2-amino-7-fluorobenzo[b] thiophene-3-carbonitrile]",IC50,"Homo sapiens, ASPC1, 2 h",7140 nM
"CC(=O)N1CC(C)(COc2nc(N3CC4CCC(C3)N4)c3cc(C(F)(F)F)c(-c4ccc(F)c5sc(N)c(C#N)c45)c(F)c3n2)C1 [Example 13, 4-(2-((1-acetyl-3-methylazetidin-3-yl)methoxy)-4-(3,8-diazabicyclo[3.2.1]octan-3-yl)-8-fluoro-6-(trifluoromethyl)quinazolin-7-yl)-2-amino-7-fluorobenzo[b]thiophene-3-carbonitrile]",IC50,"Homo sapiens, ASPC1, 2 h",146 nM
"N#Cc1c(N)sc2c(F)ccc(-c3c(C(F)(F)F)cc4c(N5CC6CCC(C5)N6)nc(OCC5(O)CCOCC5)nc4c3F)c12 [Example 19, 4-(4-(3,8-diazabicyclo[3.2.1]octan-3-yl)-8-fluoro-2-((4-hydroxytetrahydro-2H-pyran-4-yl)methoxy)-6-(trifluoromethyl)quinazolin-7-yl)-2-amino-7-fluorobenzo[b]thiophene-3-carbonitrile]",IC50,"Homo sapiens, ASPC1, 2 h",326 nM
"N#Cc1c(N)sc2c(F)ccc(-c3c(C(F)(F)F)cc4c(N5CC6CCC(C5)N6)nc(OCC5(CF)COC5)nc4c3F)c12 [Example 53, 4-(4-(3,8-diazabicyclo[3.2.1]octan-3-yl)-8-fluoro-2-((3-(fluoromethyl)oxetan-3-yl)methoxy)-6-(trifluoromethyl)quinazolin-7-yl)-2-amino-7-fluoro benzo[b]thiophene-3-carbonitrile]",IC50,"Homo sapiens, ASPC1, 2 h",33 nM
"N#Cc1c(N)sc2c(F)ccc(-c3c(C(F)(F)F)cc4c(N5CC6CCC(C5)N6)nc(OCC5(C(F)F)COC5)nc4c3F)c12 (single isomer, unassigned) [Example 48-Isomer 2, 4-(4-(3,8-diazabicyclo[3.2.1]octan-3-yl)-2-((3-(difluoromethyl)oxetan-3-yl)methoxy)-8-fluoro-6-(trifluoromethyl)quinazolin-7-yl)-2-amino-7-fluoro benzo[b]thiophene-3-carbonitrile]",IC50,"Homo sapiens, ASPC1, 2 h",65 nM
"CC1(COc2nc(N3CC4CCC(C3)N4)c3cc(C(F)(F)F)c(-c4ccc(F)c5sc(N)c(C#N)c45)c(F)c3n2)COC1 [Example 18, 4-(4 (3,8-diazabicyclo[3.2.1]octan-3-yl)-8-fluoro-2-((3-methyloxetan-3-yl)methoxy)-6-(trifluoromethyl)quinazolin-7-yl)-2-amino-7-fluorobenzo [b]thiophene-3-carbonitrile]",IC50,"Homo sapiens, ASPC1, 2 h",146 nM
CC1(CC#N)CN(c2nc(N3CC4CCC(C3)N4)c3cc(C(F)(F)F)c(-c4ccc(F)c5sc(N)c(C#N)c45)c(F)c3n2)C1 [Example 17],IC50,"Homo sapiens, ASPC1, 2 h",561 nM
"CCc1cc2c(N3CC4CCC(C3)N4)nc(OCC34COC(C)(C3)C4)nc2c(F)c1-c1ccc(F)c2sc(N)c(C#N)c12 [Example 52, 4-(4-(3,8-diazabicyclo[3.2.1]octan-3-yl)-6-ethyl-8-fluoro-2-((1-methyl-2-oxabicyclo[2.1.1]hexan-4-yl)methoxy)quinazolin-7-yl)-2-amino-7-fluorobenzo[b]thiophene-3-carbonitrile]",IC50,"Homo sapiens, ASPC1, 2 h",235 nM
"CC12CC(COc3nc(N4C5CNCC4COC5)c4cc(C(F)(F)F)c(-c5ccc(F)c6sc(N)c(C#N)c56)c(F)c4n3)(CO1)C2 [Example 16, 4-(4-(3-oxa-7,9-diazabicyclo[3.3.1]nonan-9-yl)-8-fluoro-2-((1-methyl-2-oxabicyclo[2.1.1]hexan-4-yl)methoxy)-6-(trifluoromethyl)quinazolin-7-yl)-2-amino-7-fluorobenzo[b]thiophene-3-carbonitrile]",IC50,"Homo sapiens, ASPC1, 2 h",143 nM
"N#Cc1c(N)sc2c(F)ccc(-c3c(C(F)(F)F)cc4c(N5CC6CCC(C5)N6)nc(OCC5(F)COC5)nc4c3F)c12 [Example 44, 4-(4-(3,8-diazabicyclo[3.2.1]octan-3-yl)-8-fluoro-2-((3-fluorooxetan-3-yl)methoxy)-6-(trifluoromethyl)quinazolin-7-yl)-2-amino-7-fluorobenzo [b]thiophene-3-carbonitrile]",IC50,"Homo sapiens, ASPC1, 2 h",211 nM
"N#Cc1c(N)sc2c(F)ccc(-c3c(C(F)(F)F)cc4c(N5CC6CCC(C5)N6)nc(OCC56COC(C#N)(C5)C6)nc4c3F)c12 [Example 30, 4-(((7-(2-amino-3-cyano-7-fluorobenzo[b]thiophen-4-yl)-4-(3,8-diazabicyclo[3.2.1]octan-3-yl)-8-fluoro-6-(trifluoromethyl)quinazolin-2-yl)oxy)methyl)-2-oxabicyclo[2.1.1]hexane-1-carbonitrile]",IC50,"Homo sapiens, ASPC1, 2 h",71 nM
"N#Cc1c(N)sc2c(F)ccc(-c3c(C(F)(F)F)cc4c(N5CC6CCC(C5)N6)nc(OCC5(C#N)CCOC5)nc4c3F)c12 (single isomer, unassigned) [Example 10-Isomer 3, 3-(((7-(2-amino-3-cyano-7-fluorobenzo[b]thiophen-4-yl)-4-(3,8-diazabicyclo[3.2.1]octan-3-yl)-8-fluoro-6-(trifluoromethyl)quinazolin-2-yl)oxy)methyl)tetrahydrofuran-3-carbonitrile]",IC50,,42 nM
"CCC1(COc2nc(N3CC4CCC(C3)N4)c3cc(C(F)(F)F)c(-c4ccc(F)c5sc(N)c(C#N)c45)c(F)c3n2)COC1 [Example 32, 4-(4-(3,8-diazabicyclo[3.2.1]octan-3-yl)-2-((3-ethyloxetan-3-yl)methoxy)-8-fluoro-6-(trifluoromethyl)quinazolin-7-yl)-2-amino-7-fluorobenzo[b]thiophen-3-carbonitrile]",IC50,"Homo sapiens, ASPC1, 2 h",110 nM
"COCC12CC(COc3nc(N4CC5CCC(C4)N5)c4cc(C(F)(F)F)c(-c5ccc(F)c6sc(N)c(C#N)c56)c(F)c4n3)(CO1)C2 (single isomer, unassigned) [Example 11-Isomer 2, 4-(4-(3,8-diazabicyclo[3.2.1]octan-3-yl)-8-fluoro-2-((1-(methoxymethyl)-2-oxabicyclo[2.1.1]hexan-4-yl)methoxy)-6-(trifluoromethyl)quinazolin-7-yl)-2-amino-7-fluorobenzo[b]thiophene-3-carbonitrile]",IC50,"Homo sapiens, ASPC1, 2 h",37 nM
